Source: US5859012A, “Inhibitors of farnesyl-protein transferase” (Merck & Co., Inc., priority 1997, dated 1999)
Counter-ions that a name gives are not always drawn.

Biological target: T1, human FPTase (Homo sapiens, UniProt P49354+P49356)
T1 construct: made in house
Assay: In vitro inhibition of ras farnesyl transferase (human FPTase assay, [3H]-FPP incorporation into Ras-CVIM)
Type: biochemical
Settings: 100 nM Ras-CVIM, 30 min, read-out: IC50, inhibitory activity against human FPTase

N#Cc1ccc(Cn2cncc2CN2CCN(c3cccc(Cl)c3)C(=O)C2=O)cc1 [Example 1, 4-[1-(4-Cyanobenzyl)-5-imidazolylmethyl]-1-(3-chlorophenyl)-piperazine-2,3-dione hydrochloride] was tested. Which IC50 did it give?
Its IC50 is ≤ 10 µM.

How did the IC50 turn out when CCCC[C@H]1CN(c2cccc(C)c2C)C(=O)C(=O)N1Cc1cncn1Cc1ccc(C#N)cc1 [Example 2, (S)-5-n-butyl-4-[1-(4-cyanobenzyl)-5-imidazolylmethyl]-1-(2,3-dimethylphenyl)-2,3-piperazinedione hydrochloride] was run?
The IC50 was ≤ 10 µM.
